Assay results reported in patent publication US12129312B2, “Peptide compound, application thereof and composition containing same” (priority 2017, dated 2024).
Square brackets hold non-standard residues; d marks the D form. Peptide text beside a SMILES is read from it. * marks the point of attachment. Butanoyl(4-Ph) = O=C(CCCc1ccccc1)*; NMeF = CN[C@@H](Cc1ccccc1)C(=O)O; Tic = O=C(O)[C@@H]1Cc2ccccc2CN1; NMeL = CN[C@@H](CC(C)C)C(=O)O; NMehSer = CN[C@@H](CCO)C(=O)O; Thz = O=C(O)[C@@H]1CSCN1; Hexanoyl = CCCCCC(=O)*

Molecular target: T1, human Chemokine like receptor 1 (Homo sapiens, UniProt Q99788)
T1 construct: host or cells: U2OS (Tango CMKLR1-bla U2OS)
T1 sequence (Q99788 1-373): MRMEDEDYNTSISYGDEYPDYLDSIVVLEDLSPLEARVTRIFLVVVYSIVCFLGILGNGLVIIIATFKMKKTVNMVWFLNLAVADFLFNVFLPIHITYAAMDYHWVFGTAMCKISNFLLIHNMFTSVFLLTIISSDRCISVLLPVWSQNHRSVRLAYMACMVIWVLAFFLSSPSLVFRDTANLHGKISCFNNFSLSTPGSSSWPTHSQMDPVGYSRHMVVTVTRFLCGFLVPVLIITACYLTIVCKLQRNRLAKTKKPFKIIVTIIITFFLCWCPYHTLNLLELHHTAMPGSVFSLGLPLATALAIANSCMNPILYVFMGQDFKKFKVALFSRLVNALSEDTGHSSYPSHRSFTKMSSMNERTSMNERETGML
Assay: Activation of Tango CMKLR1-bla U2OS cells (beta-lactamase FRET reporter)
Type: cell-based
Conditions: determination by the method of Effect Embodiment 1; read-out: EC50
Procedure: The polypeptide sequences described above are the polypeptide sequences disclosed in the patent JP2010-229093A of BANYU PHARMA CO LTD: (D-Tyr)-Phe-Leu-Pro-(D-Ser)-Gln-Phe-(D-Ala)-Tic-Ser was used as a positive control (SEQ ID NO: 102).
The activation of the compound on Tango™ CMKLR1-bla U2OS cells (Invitrogen Cat. nos. K1551) was tested.
The activation of each compound in the above experiments on Tango™ CMKLR1-bla U2OS cells was determined as follows:
Day 1: Cell Seeding on Plate
2. The medium was removed, and the cells were washed with DPBS twice, followed by addition of 3 mL of 0.05% trypsin, and placed in a 37° C., 5% CO2 incubator (Thermo Fisher, Waltham, Massachusetts, USA) for 3-5 minutes. After the cells were rounded, 3-5 mL of medium (medium formula: DMEM 90%, Dialyzed FBS 10%, NEAA 0.1 mM, HEPES (pH 7.3) 25 mM, Penicillin 100 U/mL, Streptomycin 100 μg/mL) was added to terminate digestion.
2. The digested cells were transferred to a 15 mL centrifuge tube (430790, Corning), centrifuged at 1000 rpm for 5 minutes (5810R, Eppendorf, Hamburg, Germany), and the supernatant was discarded.
3. 7 mL of medium (DMEM+10% FBS) was added, blowed into a single cell suspension, counted by a cell counter, and adjusted the cell suspension to a desired cell density of 250,000/mL with the medium.
4. The cell suspension was seeded into a 384-well cell plate (Corning 3712) in 40 μL/well to make the number of cells 10000 cells/well, and 32 μL of medium was added to the blank control.
5. The incubation was performed overnight at 37° C. under 5% CO2.
Day 2: Dosing and Testing
1. Preparation of 200× Compound Plate
1.1 The test compound was formulated into a 10 mM working solution in DMSO.
1.2 45 μL of 10 mM test compound was added to the 2nd column of rows A to P in the Echo-384 well plate. The compound was subjected to a 3-fold dilution with Precision (30 μL of DMSO was added to the 3rd to 11th columns; 15 μL of the drug solution was pipetted from the 2nd column to the 3rd column, blown and evenly mixed; then 15 μL of the drug solution was pipetted from the 3rd column to the 4th column, blown and evenly mixed; the drugs was subjected to a 3-fold dilution to obtain 10 concentrations in total). The 1st and 12th columns of the Echo-384 well plate were supplemented with 30 μL of DMSO.
2. Preparation of Intermediate Plate
500 nL, i.e., 0.5 μL of the diluted compound (or DMSO) in the 200× compound plate was transferred into the corresponding position of V-bottom 384-well plate with Echo. 20 μL of medium was added to each well, centrifuged, shaken and evenly mixed. The concentration of the drugs in each well of the 2nd to 11th column of intermediate plate (i.e., 5× compound plate) were shown in following Table 4.
3.1 The cell plate was taken out from the incubator and observed under a microscope. The diluted compound or DMSO in the intermediate plate was added to the cell plate in 10 μL/well in the corresponding cell plate, and 40 μL of medium was pre-filled in each well.
3.2 The cells were incubated at 37° C. under 5% CO2 for 4 hours.
4.1 1 mM CCF4-AM, solution B, Solution C, and Solution D were used to prepare an appropriate amount of 6× detection solution. The LiveBLAzer™-FRET B/G Loading kit (K1095, Thermo Fisher, Waltham, Massachusetts, USA) kit containing CCF-4AM and solutionB, solutionC, and solutionD was also purchased from invitrogen (K1157, Thermo Fisher, Waltham, Massachusetts, USA).
4.2 The cells were observed under a microscope and the cell plate was equilibrated to room temperature.
4.3 6 μL of CCF-4AM dissolved solution A, 60 μL of solution B, 904 μL of solution C and 30 μL of solution D were pipetted in an EP tube, blown, and evenly mixed to obtain a 6× detection solution. The prepared 6× detection solution was pipetted to a 384-well plate in 10 μL/well.

SMILES | EC50
CC(C)C[C@@H](C(=O)N1CCC[C@H]1C(=O)N[C@H](CO)C(=O)N[C@@H](CCC(N)=O)C(=O)N[C@@H](Cc1ccccc1)C(=O)N[C@H](C)C(=O)N1Cc2ccccc2C[C@H]1C(=O)N[C@@H](CO)C(=O)O)N(C)C(=O)[C@H](Cc1ccccc1)N(C)C(=O)[C@H](N)Cc1ccc(O)cc1 [YW-105, (D-Tyr)-(NMe-Phe)-(NMe-Leu)-Pro-(D-Ser)-Gln-Phe-(D-Ala)-Tic-Ser-OH] (H-[dY][NMeF][NMeL]P[dS]QF[dA][Tic]S-OH; N-terminus assumed) | 0.0106 µM
CC(C)C[C@H](NC(=O)[C@H](Cc1ccccc1)NC(=O)[C@@H](Cc1ccc(O)cc1)NC(=O)CCCc1ccccc1)C(=O)N1CCC[C@H]1C(=O)N[C@H](CO)C(=O)N[C@@H](CCC(N)=O)C(=O)N[C@@H](Cc1ccccc1)C(=O)N[C@H](C)C(=O)N1Cc2ccccc2C[C@H]1C(=O)N[C@@H](CO)C(=O)O [YW-75, 4-Phenylbutanoyl-(D-Tyr)-Phe-Leu-Pro-(D-Ser)-Gln-Phe-(D-Ala)-Tic-Ser-OH] ({Butanoyl(4-Ph)}-[dY]FLP[dS]QF[dA][Tic]S-OH) | 0.05 µM
CC(C)C[C@H](NC(=O)[C@H](Cc1ccccc1)N(C)C(=O)[C@H](N)Cc1ccc(O)cc1)C(=O)N1CCC[C@H]1C(=O)N[C@H](CO)C(=O)N[C@@H](CCC(N)=O)C(=O)N[C@@H](Cc1ccccc1)C(=O)N[C@H](C)C(=O)N1Cc2ccccc2C[C@H]1C(=O)N[C@@H](CO)C(=O)O [YW-104, (D-Tyr)-(NMe-Phe)-Leu-Pro-(D-Ser)-Gln-Phe-(D-Ala)-Tic-Ser-OH] (H-[dY][NMeF]LP[dS]QF[dA][Tic]S-OH) | 0.08 µM

Further lines, results first:

EC50 | SMILES
0.0007 µM | CC(C)C[C@@H](C(=O)N1CSC[C@H]1C(=O)N[C@H](CO)C(=O)N[C@@H](CCC(N)=O)C(=O)N[C@@H](Cc1ccccc1)C(=O)N[C@H](C)C(=O)N1Cc2ccccc2C[C@H]1C(=O)N[C@@H](CO)C(=O)O)N(C)C(=O)[C@H](Cc1ccccc1)NC(=O)[C@H](N)Cc1ccc(O)cc1 [YW-121, (D-Tyr)-Phe-(NMe-Leu)-Thz-(D-Ser)-Gln-Phe-(D-Ala)-Tic-Ser-OH] (H-[dY]F[NMeL][Thz][dS]QF[dA][Tic]S-OH)
0.0014 µM | CCCCCC(=O)N[C@H](Cc1ccc(O)cc1)C(=O)N[C@@H](Cc1ccccc1)C(=O)N(C)[C@@H](CC(C)C)C(=O)N1CCC[C@H]1C(=O)N[C@H](CO)C(=O)N[C@@H](CCC(N)=O)C(=O)N[C@@H](Cc1ccccc1)C(=O)N[C@H](C)C(=O)N1Cc2ccccc2C[C@H]1C(=O)N[C@@H](CO)C(=O)O [YW-193, Hexanoyl-(D-Tyr)-Phe-(NMe-Leu)-Pro-(D-Ser)-Gln-Phe-(D-Ala)-Tic-Ser] (Hexanoyl-[dY]F[NMeL]P[dS]QF[dA][Tic]S-OH)
0.0027 µM | CC(C)C[C@@H](C(=O)N1CCC[C@H]1C(=O)N[C@H](CO)C(=O)N[C@@H](CCC(N)=O)C(=O)N[C@@H](Cc1ccccc1)C(=O)N[C@H](C)C(=O)N1Cc2ccccc2C[C@H]1C(=O)N[C@@H](CO)C(N)=O)N(C)C(=O)[C@H](Cc1ccccc1)NC(=O)[C@H](N)Cc1ccc(O)cc1 [YW-190, (D-Tyr)-Phe-(NMe-Leu)-Pro-(D-Ser)-Gln-Phe-(D-Ala)-Tic-Ser-NH2] (H-[dY]F[NMeL]P[dS]QF[dA][Tic]S-NH2; N-terminus assumed)
0.025 µM | CC(C)C[C@@H](C(=O)N1CCC[C@H]1C(=O)N[C@H](CO)C(=O)N[C@@H](CCC(N)=O)C(=O)N[C@@H](Cc1ccccc1)C(=O)N[C@H](C)C(=O)N1Cc2ccccc2C[C@H]1C(=O)N(C)[C@@H](CCO)C(=O)O)N(C)C(=O)[C@H](Cc1ccccc1)NC(=O)[C@H](N)Cc1ccc(O)cc1 [YW-177, (D-Tyr)-Phe-(NMe-Leu)-Pro-(D-Ser)-Gln-Phe-(D-Ala)-Tic-(NMe-HoSer)-OH] (H-[dY]F[NMeL]P[dS]QF[dA][Tic][NMehSer]-OH)
